# Laboratory results from patent US20220249616A1, “Osteocrin, Lebetin or ANP for Destroying Bacterial Biofilms” (priority 2019, published 2022).
# Like-named read-outs stand apart in the source and are kept apart here.
# Tests used:
# [1] = test system: preformed biofilm of P. aeruginosa PA14; assay: microbe, parasite or virus in culture; details: for % Inhibition (30 min) / Biovolume (30 min): 30 min exposure; for Biovolume (30 min): non-treated 22.19
# Procedure: (§1) Briefly, from an 18 h pre-culture, a bacterial suspension at OD600=0.08 prepared in sterile physiological saline solution was injected into each channel of the flow chamber. The bacteria were left for 2 h at 37° C. under static conditions (no flow) so that they adhered to the glass slide. Study of biofilm formation was then conducted under a flow of LB medium (2.5 ml/h) for 24 h at 37° C.
# […] Treatment of the preformed biofilm was conducted for 2 h at 37° C. under static conditions.
# (§2) Treatment of the preformed biofilm was conducted for 2 h at 37° C. under static conditions.
# To test the membrane integrity of the bacteria, a mixture of 5 μM SYTO 9 Green and 0.3 μM propidium iodide (PI) was used (Live/Dead BacLight Bacterial Viability Kit, Invitrogen).
# as §2, §2, §2, §2
# Treatment of the biofilm was conducted for 2 h at 37° C. under static conditions. […] Next, 300 μl of tobramycin (50 μg/ml) or 300 μl of milliQ sterile water (control conditions) were injected into the two channels of the flow chamber pre-exposed to ANP. The second treatment of the preformed biofilm was again conducted for 2 h at 37° C. under static conditions.
# [2] = target: AmiC sensor of P. aeruginosa (Pseudomonas aeruginosa, UniProt P27017); details: Rosay et al. (2015); cited from earlier work
# Chain of AmiC sensor of P. aeruginosa (P27017 whole entry): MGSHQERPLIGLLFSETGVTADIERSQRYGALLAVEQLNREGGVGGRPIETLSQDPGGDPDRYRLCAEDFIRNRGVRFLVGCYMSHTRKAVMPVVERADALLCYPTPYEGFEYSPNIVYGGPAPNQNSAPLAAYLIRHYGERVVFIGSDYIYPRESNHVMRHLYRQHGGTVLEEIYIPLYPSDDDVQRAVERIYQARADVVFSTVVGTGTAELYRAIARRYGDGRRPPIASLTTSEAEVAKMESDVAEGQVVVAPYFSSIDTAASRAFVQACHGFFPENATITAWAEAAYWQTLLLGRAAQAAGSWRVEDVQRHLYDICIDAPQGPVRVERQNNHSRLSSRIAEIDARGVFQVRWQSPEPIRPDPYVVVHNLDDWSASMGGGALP
# [3] = test system: P. aeruginosa biofilm in formation; assay: Formation of the P. aeruginosa biofilm under dynamic conditions; type: cell-based, Pseudomonas aeruginosa; details: ANP 0.1 μM
# Procedure: After 3 h pre-culture in LB medium at 37° C., P. aeruginosa was inoculated at OD600=0.08 in LB medium and sub-cultured for 2 h.
# The ANP (Calbiochem Merck) was added 2 h after the start of culture, a time corresponding to the middle of the exponential growth phase of the bacteria. Final bacterial density and absence of contamination were controlled by seeding.
# as §1, with “The biofilms were formed under dynamic conditions at 37° C. in a 3-channel flow chamber as described in Bazire et al. (2010) J. Bacteriol. 192:3001-3010. Briefly,” for “Briefly,”
# P. aeruginosa biofilm = details: Desriac et al. 2017, 2018; Rosay et al. 2015; cited from earlier work
# [4] = test system: A549 human pulmonary epithelial cells infected with P. aeruginosa PA14; assay: LDH release by A549 cells infected with P. aeruginosa PA14 pre-treated with ANP (bacterial cytotoxicity); type: cell-based; details: for % LDH (dead cells): 6 h, MOI 10, PA14 non-treated 56.4 ± 5.5
# Procedure: The line of human pulmonary epithelial cells of type II A549 (ATCC-CCL185TM, ATCC Manassas, Va.) was placed in culture at 37° C. under 5% CO2 atmosphere in DMEM medium (Lonza) supplemented with 10% foetal calf serum (Lonza) and 1% penicillin and streptomycin (Penistrep, Lonza). Under routine cell culture, the cells were seeded in a 25 ml flask and used at 80% confluence.
# For cytotoxicity tests, the cells were seeded in 24-well plates to a final density of 3×10^5 cells per well and cultured 48 h before use. For a minimum time of 24 h before the infection tests, the cells were deprived of antibiotics and foetal calf serum through the addition of a medium without fresh serum.
# The amount of LDH released by the eukaryote cells in the presence of bacteria, whether or not exposed to ANP (concentration of 1 μM at 10 nM), was determined using the Cytotox 96 enzymatic test (Promega, Charbonnières, France). The A549 cells were incubated for 6 h on a control (without treatment) or with P. aeruginosa PA14 (pre-treated with ANP) with a multiplicity of infection of 10. A lysis buffer consisting of Triton X-100 solution (9% in water), was employed to determine the maximum LDH potentially released by the A549 cells under the experimental conditions (100% LDH release). A level of background noise was determined using the culture medium alone and defined as 0% LDH release, to exclude contribution by the culture medium. Percentage LDH release in the cell population was then calculated with the equation: […]
# P. aeruginosa P14 = assay: Growth of P. aeruginosa in liquid medium in the presence of ANP; type: cell-based, Pseudomonas aeruginosa; details: ANP at 1 μM and 0.1 μM
# Procedure: The bacterial strains were cultured at 37° C. in Luria Bertani medium (LB) under agitation.
# To determine a potential direct effect of ANP on the growth of P. aeruginosa, the inventors studied the impact of ANP at 1 μM and 0.1 μM on the growth of P. aeruginosa P14 in a liquid medium.
# P. aeruginosa = details: observed previously; by activating bacterial quorum-sensing systems; cited from earlier work
# [5] = Pseudomonas aeruginosa, PA14, 2 h
compound,measurement,setting,value
lebetin 1β [Lebetin L1 beta],dispersion of established biofilm (observation),"[1]; 10^−8 M, 2 h exposure",strongly dispersed
same,% Inhibition (2 h),"[1]; Lebetin L1 beta 10^−8 M, 2 h exposure",67.0%
same,Biovolume (2 h),"[1]; Lebetin L1 beta 10^−8 M, 2 h exposure, non-treated 21.0",6.9 μm^3/μm^2
lebetin 2α (GDNKPPKKGPPNGCFGHKIDRIGSHSGLGCNKVDDNKG) [Lebetin L2 alpha],dispersion of established biofilm (observation),"[1]; 10^−8 M, 2 h exposure",strongly and significantly dispersed
same,% Inhibition (2 h),"[1]; Lebetin L2 alpha 10^−8 M, 2 h exposure",70.2 (***) %
same,Biovolume (2 h),"[1]; Lebetin L2 alpha 10^−8 M, 2 h exposure, non-treated 29.7",8.9 μm^3/μm^2
same,binding onto the AmiC sensor of P. aeruginosa,[2],strong affinity
"NC[C@H]1O[C@H](O[C@H]2[C@H](O)[C@@H](O[C@H]3O[C@H](CO)[C@@H](O)[C@H](N)[C@H]3O)[C@H](N)C[C@@H]2N)[C@H](N)C[C@@H]1O [Tobramycin, tobramycin, reference compound]",inhibition at 10 µg/mL,[1]; [5],78.5%
same,inhibition at 50 µg/mL,[1]; [5],75.9%
same,Biovolume,"[1]; Tobramycin 10 μg/ml alone, 2 h, non-treated 13.5",2.9 μm^3/μm^2
same,Biovolume,"[1]; Tobramycin 50 μg/ml alone, 2 h, non-treated 13.5",3.26 μm^3/μm^2
"CC[C@H](C)[C@@H]1NC(=O)[C@H](CCCNC(=N)N)NC(=O)[C@H](CC(=O)O)NC(=O)[C@H](CCSC)NC(=O)[C@H](CCCNC(=N)N)NC(=O)CNC(=O)CNC(=O)[C@H](Cc2ccccc2)NC(=O)[C@@H](NC(=O)[C@H](CO)NC(=O)[C@H](CO)NC(=O)[C@H](CCCNC(=N)N)NC(=O)[C@H](CCCNC(=N)N)NC(=O)[C@H](CC(C)C)NC(=O)[C@@H](N)CO)CSSC[C@@H](C(=O)N[C@@H](CC(N)=O)C(=O)N[C@@H](CO)C(=O)N[C@@H](Cc2ccccc2)C(=O)N[C@@H](CCCNC(=N)N)C(=O)N[C@@H](Cc2ccc(O)cc2)C(=O)O)NC(=O)CNC(=O)[C@H](CC(C)C)NC(=O)CNC(=O)[C@H](CO)NC(=O)[C@H](CCC(N)=O)NC(=O)[C@H](C)NC(=O)CNC1=O [ANP, Atrial Natriuretic Peptide]",formation of a P. aeruginosa biofilm,[3],fully prevents
same,formation of P. aeruginosa biofilm,P. aeruginosa biofilm,prevent the formation
same,% Inhibition (30 min),[1]; ANP 0.3 ng/ml,57.5 (*) %
same,Biovolume (30 min),[1]; ANP 0.3 ng/ml,9.5 μm^3/μm^2
same,% Inhibition (2 h),"[1]; ANP 0.3 ng/ml, 2 h exposure",45.1 (**) %
same,Biovolume (2 h),"[1]; ANP 0.3 ng/ml, 2 h exposure, non-treated 21.1 (mean of all controls)",10.6 μm^3/μm^2
same,% Inhibition (30 min),[1]; ANP 3 ng/ml,59.1 (*) %
same,Biovolume (30 min),[1]; ANP 3 ng/ml,8.8 μm^3/μm^2
same,% Inhibition (2 h),"[1]; ANP 3 ng/ml, 2 h exposure",65.9 (***) %
same,Biovolume (2 h),"[1]; ANP 3 ng/ml, 2 h exposure, non-treated 21.1 (mean of all controls)",6.3 μm^3/μm^2
same,% Inhibition (30 min),[1]; ANP 30 ng/ml,69.0 (*) %
same,Biovolume (30 min),[1]; ANP 30 ng/ml,6.7 μm^3/μm^2
same,% Inhibition (2 h),"[1]; ANP 30 ng/ml, 2 h exposure",72.5 (***) %
same,Biovolume (2 h),"[1]; ANP 30 ng/ml, 2 h exposure, non-treated 21.1 (mean of all controls)",4.4 μm^3/μm^2
same,biofilm structure dispersed,"[1]; ANP 0.1 μM for 2 h, even 30 minutes",about 80%
same,thickness of the biofilm,"[1]; ANP 0.1 μM, 2 h exposure",major reduction
same,bacterial biomass reduced compared with control,"[1]; ANP 0.1 μM, 2 hours exposure (P<0.001)",81.4±4.1%
same,% Inhibition (30 min),[1]; ANP 300 ng/ml (0.1 μM),80.2 (*) %
same,Biovolume (30 min),[1]; ANP 300 ng/ml (0.1 μM),4.4 μm^3/μm^2
same,% Inhibition (2 h),"[1]; ANP 300 ng/ml (0.1 μM), 2 h exposure",81.4 (***) %
same,Biovolume (2 h),"[1]; ANP 300 ng/ml (0.1 μM), 2 h exposure, non-treated 21.1 (mean of all controls)",4.9 μm^3/μm^2
same,% Inhibition,"[1]; ANP 10^−8 M alone, 2 h (colistin experiment)",73.5%
same,% Inhibition,"[1]; ANP 10^−8 M alone, 2 h (imipenem experiment)",75.4%
same,% Inhibition,"[1]; ANP 10^−8 M alone, 2 h (polymyxin B experiment)",75.3%
same,Biovolume,"[1]; ANP 10^−8 M alone, 2 h, non-treated 18.2 (polymyxin B experiment)",4.5 μm^3/μm^2
same,Biovolume,"[1]; ANP 10^−8 M alone, 2 h, non-treated 18.5 (colistin experiment)",4.9 μm^3/μm^2
same,Biovolume,"[1]; ANP 10^−8 M alone, 2 h, non-treated 28.0 (imipenem experiment)",6.9 μm^3/μm^2
same,% Inhibition,"[1]; ANP 10^−9 M 2 h, then sterile water 2 h (sequential experiment)",68.7%
same,Biovolume,"[1]; ANP 10^−9 M 2 h, then sterile water 2 h (sequential experiment), non-treated 13.1",4.1 μm^3/μm^2
same,% Inhibition,"[1]; ANP 10^−9 M alone, 2 h (table with tobramycin 10 μg/ml)",66.4%
same,% Inhibition,"[1]; ANP 10^−9 M alone, 2 h (table with tobramycin 50 μg/ml)",66.4%
same,Biovolume,"[1]; ANP 10^−9 M alone, 2 h, non-treated 13.5 (table with tobramycin 10 μg/ml)",4.53 μm^3/μm^2
same,Biovolume,"[1]; ANP 10^−9 M alone, 2 h, non-treated 13.5 (table with tobramycin 50 μg/ml)",4.53 μm^3/μm^2
same,remaining bacterial biomass reduced compared with control,"[1]; ANP (0.1 μM per Example 1), 30 minutes exposure (P<0.05)",80.2±2.0%
same,pre-established P. aeruginosa biofilms destroyed,"[1]; low dose (on and after 0.1 nM), as soon as 30 min after administration",about 80%
same,dispersion of established biofilm (observation),"[1]; on and after the lowest concentration of 0.3 ng/ml, as soon as after exposure for 30 min",strongly dispersed
same,binding onto the AmiC sensor of P. aeruginosa,[2],strong affinity
same,impact on the cytotoxic activity of P. aeruginosa in pulmonary cells,[4]; ANP 1 μM to 10 nM,no impact
same,% LDH (dead cells),[4]; PA14 + ANP 10^−6 M,58.9 ± 5.8%
same,% LDH (dead cells),[4]; PA14 + ANP 10^−7 M,53.5 ± 5.3%
same,% LDH (dead cells),[4]; PA14 + ANP 10^−8 M,54.5 ± 5.5%
same,effect on growth of P. aeruginosa,P. aeruginosa P14,None of the tested ANP concentrations affected bacterial growth
colistin [reference compound],% Inhibition,"[1]; Colistin 1 μg/ml alone, 2 h",88.6%
same,Biovolume,"[1]; Colistin 1 μg/ml alone, 2 h, non-treated 18.5",2.1 μm^3/μm^2
"C[C@@H](O)[C@H]1C(=O)N2C(C(=O)O)=C(SCCN=CN)C[C@H]12 [Imipenem, imipenem, reference compound]",Biovolume,[1],7.0 μm^3/μm^2
same,inhibition at 0.5 µg/mL,[1]; [5],75%
polymyxin B [reference compound],% Inhibition,"[1]; Polymyxin B 4 μg/ml alone, 2 h",59.3%
same,Biovolume,"[1]; Polymyxin B 4 μg/ml alone, 2 h, non-treated 18.2",7.4 μm^3/μm^2
"O=C(O)c1cn(C2CC2)c2cc(N3CCNCC3)c(F)cc2c1=O [Ciprofloxacin, ciprofloxacin, reference compound]",inhibition at 0.01 µg/mL,[1]; [5],90%
same,inhibition at 0.04 µg/mL,[1]; [5],99.3%
Brain Natriuretic Peptide [BNP],formation of P. aeruginosa biofilm,P. aeruginosa biofilm,prevent the formation
C-type Natriuretic Peptide [CNP],formation of P. aeruginosa biofilm,P. aeruginosa biofilm,prevent the formation
same,bacterial virulence and cytotoxicity,P. aeruginosa,slightly increased
osteocrin,dispersion of established biofilm (observation),"[1]; 10^−8 M, 2 h exposure",strongly and significantly dispersed
same,% Inhibition (2 h),"[1]; Osteocrin 10^−8 M, 2 h exposure",59.4 (***) %
same,Biovolume (2 h),"[1]; Osteocrin 10^−8 M, 2 h exposure, non-treated 29.8",12.1 μm^3/μm^2
same,binding onto the AmiC sensor of P. aeruginosa,[2],strong affinity
